Experimental findings from US6946427B2, “Preservative blends containing iodine containing compounds” (Lonza Inc., priority 2001, dated 2005) are described below.

Where two headings read alike, the source gives them in different places. Some results are limits rather than exact numbers.

The assay relates to S. aureus, P. aeruginosa, and E. coli. The assay is described as follows: Preservative challenge test in anionic protein shampoo inoculated with mixed bacteria; plate counts and Kull synergism value. The format is cell-based.

Take `CC(=O)c1c([O-])cc(C)oc1=O.O.[Na+]` [Sodium Dehydroacetate Monohydrate, sodium dehydroacetate monohydrate]: the “S. aureus, P. aeruginosa, and E. coli (cfu/g) Day 0” value (anionic protein shampoo, single preservative, printed ">0.5%" by weight, Day 0) was 3.0 × 10^6 cfu/g. The “S. aureus, P. aeruginosa, and E. coli (cfu/g) Day 14” value (anionic protein shampoo, single preservative, printed ">0.5%" by weight, Day 14) is 4.0 × 10^3 cfu/g. Moreover, the “Qc, concentration of sodium dehydroacetate monohydrate alone required to yield 100% retardation of the bacteria” value (percent by weight, plate count <10 cfu/g after 14 days) is given as more than 0.50%.
Take `O=C([O-])c1ccccc1O.[Na+]` [Sodium Salicylate, sodium salicylate]: the “Qa, concentration of sodium salicylate alone required to yield 100% retardation of the bacteria” value was more than 1.00%; the “S. aureus, P. aeruginosa, and E. coli (cfu/g) Day 0” value was 3.0 × 10^6 cfu/g; the “S. aureus, P. aeruginosa, and E. coli (cfu/g) Day 14” value was 5.0 × 10^2 cfu/g.
